The numbers were not newly measured in patent US20220192984A1, “PHARMACEUTICAL COMPOSITIONS COMPRISING OTIC THERAPEUTIC AGENTS AND RELATED METHODS” (Frequency Therapeutics, Inc., priority 2018, published 2022), which cites them from elsewhere.

The term IC50 denotes the concentration that inhibits the measured activity by half.

This data set deals with HER4 (Homo sapiens, UniProt Q15303). Particulars: cited from earlier work.
Chain of HER4 (Q15303 26-1308, species assumed): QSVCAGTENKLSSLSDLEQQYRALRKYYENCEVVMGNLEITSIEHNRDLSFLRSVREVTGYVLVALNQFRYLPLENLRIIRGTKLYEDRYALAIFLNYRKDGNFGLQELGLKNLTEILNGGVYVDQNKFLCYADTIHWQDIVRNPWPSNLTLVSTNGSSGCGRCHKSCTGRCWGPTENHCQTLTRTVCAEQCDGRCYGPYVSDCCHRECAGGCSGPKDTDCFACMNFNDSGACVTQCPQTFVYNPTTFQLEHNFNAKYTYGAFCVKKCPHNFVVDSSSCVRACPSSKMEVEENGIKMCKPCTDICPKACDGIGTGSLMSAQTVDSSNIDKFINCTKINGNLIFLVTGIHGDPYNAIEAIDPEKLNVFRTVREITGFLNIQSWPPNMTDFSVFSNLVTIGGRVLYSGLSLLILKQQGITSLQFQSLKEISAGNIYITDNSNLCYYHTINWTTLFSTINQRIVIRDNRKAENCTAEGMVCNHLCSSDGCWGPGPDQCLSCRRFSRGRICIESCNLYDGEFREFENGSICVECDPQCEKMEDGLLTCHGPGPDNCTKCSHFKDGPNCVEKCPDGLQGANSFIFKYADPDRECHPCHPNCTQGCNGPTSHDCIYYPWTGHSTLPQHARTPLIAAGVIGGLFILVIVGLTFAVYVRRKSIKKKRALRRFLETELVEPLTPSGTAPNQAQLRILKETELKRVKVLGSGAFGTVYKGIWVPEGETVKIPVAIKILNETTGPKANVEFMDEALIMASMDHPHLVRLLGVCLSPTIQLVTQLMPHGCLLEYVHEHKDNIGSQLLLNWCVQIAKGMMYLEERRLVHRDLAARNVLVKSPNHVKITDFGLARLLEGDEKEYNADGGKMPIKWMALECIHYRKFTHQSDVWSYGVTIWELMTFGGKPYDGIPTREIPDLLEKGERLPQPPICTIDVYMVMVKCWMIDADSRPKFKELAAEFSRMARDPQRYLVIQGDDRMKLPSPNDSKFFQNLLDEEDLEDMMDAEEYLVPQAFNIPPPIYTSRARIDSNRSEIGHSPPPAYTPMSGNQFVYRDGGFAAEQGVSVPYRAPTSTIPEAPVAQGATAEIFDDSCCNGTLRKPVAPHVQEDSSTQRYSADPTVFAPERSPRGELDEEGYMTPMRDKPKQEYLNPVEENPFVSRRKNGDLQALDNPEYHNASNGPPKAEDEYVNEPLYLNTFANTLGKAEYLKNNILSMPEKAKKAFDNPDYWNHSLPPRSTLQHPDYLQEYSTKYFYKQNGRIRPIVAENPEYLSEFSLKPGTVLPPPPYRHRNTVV

For `CNC(=O)CN1CCC(Oc2cc3c(Nc4cccc(Cl)c4F)ncnc3cc2OC)CC1` [Sapitinib/AZD8931/], the IC50 was 3 nM.
